Measured values as given in PubChem BioAssay AID179 (DTP/NCI, 2004).
The source made the active and inactive calls.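 How the source made its calls: active means compounds giving half or more protection of infected cells from virus-caused growth loss, again on retest; inactive means the rest.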 Where a SMILES comes first, the peptide text is derived from it. The star is where a group is joined. Boc = CC(C)(C)OC(=O)*

Tested on: CEM cells HIV-1 protection, formazan growth assay
Test: NCI AIDS Antiviral Assay
Details: for IC50: measured here: growth of uninfected CEM cells
How it was run: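 Screen of anti-HIV-1 activity in human CEM cells using a formazan-based growth measurement at five drug concentrations. Hits with 50% or greater protection were repeated, and confirmation required reproducible complete protection.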

Row | SMILES | outcome | EC50 | IC50
1 | O=C1C(I)=CC(=C(c2cc(I)c(O)c(I)c2)c2ccccc2C(=O)O)C=C1I | inactive |  | 
2 | O=c1[nH]c2ccc(CC(=S)N3CCOCC3)cc2o1 |  | > 200 µM | > 200 µM
3 | O=C(O)CCC1COc2ccccc2O1 (configuration not stated) |  | > 200 µM | > 200 µM
4 | O=C(c1ccccc1)C(O)(CC(c1ccccc1)[P+](c1ccccc1)(c1ccccc1)c1ccccc1)c1ccccc1 (configuration not stated) |  | > 200 µM | 1.17 µM
5 | CCCC/C=C(/CCCNCCc1ccccc1)[Si](C)(C)C |  | > 81.3 µM | > 81.3 µM
6 | Cc1cccc(C)c1NC(=O)CCCC(=O)C1CCC/C1=N\NC(=O)C(=O)NN (configuration not stated) |  | > 64.6 µM | > 64.6 µM
7 | O=C(CCCC[n+]1ccccc1)Sc1ccccc1C(=O)Nc1ccc(S(=O)(=O)Nc2nccs2)cc1 |  | 13.5 µM | 91.2 µM
8 | Cc1c(C(=O)C(=O)c2ccccc2)c(C)c(C(=O)C(=O)c2ccccc2)c(C)c1C(=O)C(=O)c1ccccc1 |  | > 200 µM | > 200 µM
9 | CCC1NC(N=Nc2ccc([N+](=O)[O-])cc2)(P(=O)(OC(C)C)OC(C)C)OC1=O (configuration not stated) |  | > 219 µM | > 219 µM
10 | CSc1c(C#N)c(N)n(-c2ccc(C)cc2)c(=O)c1C#N |  | > 83.2 µM | 74.1 µM
11 | N#Cc1nc(-c2cnccn2)oc1N |  | > 200 µM | 182 µM
12 | Cc1ccccc1NC(=O)C(=O)C(c1cnc2ccc([N+](=O)[O-])cc2n1)[N+](=O)[O-] (configuration not stated) |  | > 240 µM | 126 µM
13 | COc1c(-c2ccc3c(c2)OCO3)oc2cc3c(c(OC)c2c1=O)OCO3 |  | > 200 µM | > 200 µM
14 | O=C1CC(=O)N(CCc2ccccc2)S(=O)(=O)N1CCc1ccccc1 |  | > 200 µM | 35.5 µM
15 | C=CC1(C)CCC2C(C)(C)C(Br)CC[C@]2(C)O1 (some centres not stated) | inactive |  | 
16 | CC(NC(=O)C(NC(=O)OC(C)(C)C)C(C)C)C(=O)N1CCCC1C(=O)NCC(=O)NC(C(=O)NCC(=O)O)C(C)C (configuration not stated) (Boc-VAPGVG-OH; configuration not given here) |  | > 200 µM | > 200 µM
17 | C=C(C)[C@@H]1CC[C@]2(C(=O)OC)CC[C@]3(C)[C@H](CC[C@@H]4[C@@]5(C)CC[C@H](O)C(C)(C)[C@@H]5CC[C@]43C)[C@@H]12 | inactive |  | 
18 | c1ccc2c(c1)OCCOCCOc1ccccc1OCCO2 |  | > 295 µM | 74.1 µM
19 | O=C(N=c1nc2ccccn2s1)c1ccccc1 |  | > 53.7 µM | > 53.7 µM
20 | CN(N)/N=N/c1nc[nH]c1C(N)=O |  | > 2 µM | 1.45 µM
21 | COc1ccc(/C(C#N)=C/c2cccc(N)c2)cc1 |  | > 200 µM | 25.1 µM

Row | SMILES | outcome | EC50 | IC50
22 | O=C1C(=C/C=C2/SC(c3ccccc3)(c3ccccc3)c3ccccc32)C(=O)c2ccccc21 |  | > 200 µM | > 200 µM
23 | O=C1NC(N2CCCCC2)=N/C1=C\c1ccccc1 |  | > 200 µM | > 200 µM
24 | CCOC(=O)c1c(Cl)nc2ccccc2c1N=[N+]=[N-] |  | > 200 µM | 31.6 µM
25 | O=[N+]([O-])c1nccn1CC(O)c1ccc(F)cc1 (configuration not stated) |  | > 1000 µM | > 1000 µM
26 | CO[C@@]12CC(=O)/C(=C(O)\C=C\c3ccccc3)C(=O)[C@]1(OC)Cc1ccccc1O2 |  | > 17.8 µM | 15.5 µM
27 | NC(N)=NS(=O)(=O)c1ccc(NCc2cccc3c(=O)c4ccc(Cl)cc4oc23)cc1 |  | > 25.1 µM | 2.19 µM
28 | CC(=O)C(N=Nc1ncn[nH]1)C(C)=O |  | > 200 µM | 170 µM
29 | Cc1cccc(C=NC23CC4CC(CC(C4)C2)C3)c1 |  | > 102 µM | > 102 µM
30 | O=C(O)c1ccc(CS(=O)(=O)c2ccc([N+](=O)[O-])cc2)c([N+](=O)[O-])c1 |  | > 676 µM | 324 µM
31 | COc1c(OC2OC(CO)C(O)C(O)C2O)cc2c(c1OC)-c1ccc(OC)c(=O)cc1[C@@H](NC(C)=O)CC2 (some centres not stated) | inactive |  | 
32 | CC(=O)Nc1ccc(S(=O)(=O)c2ccc(NC(=O)c3ccccc3SC(=O)CCCC[n+]3ccccc3)cc2)cc1 |  | 13.5 µM | > 200 µM
33 | O=C(NCCO)c1c(CN(CCO)CCO)n([O-])c2ccccc2[n+]1=O |  | > 490 µM | 457 µM
34 | COc1ccc2nc3cc(Cl)ccc3c(Sc3ccc(N)cc3)c2c1 |  | > 14.1 µM | 3.31 µM
35 | CC(C)Oc1cc2c(c3oc(=O)c4c(c13)CCCC4)C(=O)[C@H](C)[C@@H](C)O2 |  | > 200 µM | 12.3 µM
36 | Sc1ccc(Nc2c3ccccc3nc3ccccc23)cc1 |  | > 200 µM | 14.5 µM
37 | C/C(=N\NS(=O)(=O)c1ccc(C)cc1)C(CN(C)C)C(c1ccccc1)c1c(O)c2ccccc2oc1=O (configuration not stated) |  | > 72.4 µM | > 72.4 µM
38 | NC(CCC(=O)NC(CSSCC(NC(=O)CCC(N)C(=O)O)C(=O)O)C(=O)O)C(=O)O (configuration not stated) |  | > 200 µM | > 200 µM
39 | Cc1[nH]c(=O)[nH]c1C(=O)c1ccc(-n2ccnc2)cc1 |  | > 14.1 µM | > 14.1 µM
40 | CCC1(c2c(F)c(F)c(N)c(F)c2F)CCC(=O)NC1=O (configuration not stated) | inactive |  | 
41 | CN(C)CC1CCCC(CN(C)C)C1=NOC(=O)c1ccccc1 (configuration not stated) |  | > 200 µM | 174 µM
